#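 Five compound concentrations were applied to cells in 96-well plates for 48 hours; endpoints were derived by simple linear interpolation of the resulting dose-response curve. Abbreviation: GI50, concentration required for 50% inhibition of growth. TGI: concentration producing complete growth inhibition.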
# Key:
# Test in all cases: growth of human tumour cells (NCI), 48 h
# [1] = test system: 786-0 renal
# [2] = test system: A498 renal
# [3] = test system: A549 NSCLC
# [4] = test system: ACHN renal
# [5] = test system: BT-549 breast
# [6] = test system: CAKI-1 renal
# [7] = test system: CCRF-CEM leukemia
# [8] = test system: COLO 205 colon
# [9] = test system: DU-145 prostate
# [10] = test system: EKVX NSCLC
# [11] = test system: HCC-2998 colon
# [12] = test system: HCT-116 colon
# [13] = test system: HCT-15 colon
# [14] = test system: HL-60(TB) leukemia
# [15] = test system: HOP-62 NSCLC
# [16] = test system: HOP-92 NSCLC
# [17] = test system: HS 578T breast
# [18] = test system: HT29 colon
# [19] = test system: IGROV1 ovarian
# [20] = test system: K-562 leukemia
# [21] = test system: KM12 colon
# [22] = test system: LOX IMVI melanoma
# [23] = test system: M14 melanoma
# [24] = test system: MCF7 breast
# [25] = test system: MDA-MB-231 breast
# [26] = test system: MDA-MB-435
# [27] = test system: MOLT-4 leukemia
# [28] = test system: NCI-H226 lung
smiles,measurement,setting,value
COc1ccc2oc(-c3ccc(Cl)cc3)c(N3CCN(C)CC3)c2c1,GI50,[1],1750 nM
same,TGI,[1],3420 nM
same,GI50,[2],1530 nM
same,TGI,[2],3150 nM
same,GI50,[3],1830 nM
same,TGI,[3],3940 nM
same,GI50,[4],1730 nM
same,TGI,[4],3700 nM
same,GI50,[5],6390 nM
same,TGI,[5],20700 nM
same,GI50,[6],1570 nM
same,TGI,[6],3270 nM
same,GI50,[7],1710 nM
same,TGI,[7],4060 nM
same,GI50,[8],1680 nM
same,TGI,[8],3620 nM
same,GI50,[9],1880 nM
same,TGI,[9],3980 nM
same,GI50,[10],603 nM
same,TGI,[10],2470 nM
same,GI50,[11],2020 nM
same,TGI,[11],4130 nM
same,GI50,[12],1980 nM
same,TGI,[12],4590 nM
same,GI50,[13],1620 nM
same,TGI,[13],3240 nM
same,GI50,[14],2640 nM
same,TGI,[14],> 20000 nM
same,GI50,[15],1820 nM
same,TGI,[15],3860 nM
same,GI50,[16],370 nM
same,TGI,[16],2780 nM
same,GI50,[17],1710 nM
same,TGI,[17],3860 nM
same,GI50,[18],1420 nM
same,TGI,[18],3320 nM
same,GI50,[19],1050 nM
same,TGI,[19],2690 nM
same,GI50,[20],3380 nM
same,TGI,[20],> 100000 nM
same,GI50,[21],1640 nM
same,TGI,[21],3270 nM
same,GI50,[22],1610 nM
same,TGI,[22],3070 nM
same,GI50,[23],1950 nM
same,TGI,[23],4260 nM
same,GI50,[24],1700 nM
same,TGI,[24],3500 nM
same,GI50,[25],1640 nM
same,TGI,[25],3270 nM
same,GI50,[26],1830 nM
same,TGI,[26],4060 nM
same,GI50,[27],2280 nM
same,TGI,[27],6950 nM
same,GI50,[28],3160 nM
same,TGI,[28],14500 nM
